Like-named read-outs stand apart in the source and are kept apart here.
Columns and labels:
human CaSR = target: T1, human CaSR (Homo sapiens, UniProt P41180); assay: CaSR FLIPR assay (calcilytic activity); assay type: cell-based; set-up: expressed in transfected cells
T1 sequence (P41180 20-1078): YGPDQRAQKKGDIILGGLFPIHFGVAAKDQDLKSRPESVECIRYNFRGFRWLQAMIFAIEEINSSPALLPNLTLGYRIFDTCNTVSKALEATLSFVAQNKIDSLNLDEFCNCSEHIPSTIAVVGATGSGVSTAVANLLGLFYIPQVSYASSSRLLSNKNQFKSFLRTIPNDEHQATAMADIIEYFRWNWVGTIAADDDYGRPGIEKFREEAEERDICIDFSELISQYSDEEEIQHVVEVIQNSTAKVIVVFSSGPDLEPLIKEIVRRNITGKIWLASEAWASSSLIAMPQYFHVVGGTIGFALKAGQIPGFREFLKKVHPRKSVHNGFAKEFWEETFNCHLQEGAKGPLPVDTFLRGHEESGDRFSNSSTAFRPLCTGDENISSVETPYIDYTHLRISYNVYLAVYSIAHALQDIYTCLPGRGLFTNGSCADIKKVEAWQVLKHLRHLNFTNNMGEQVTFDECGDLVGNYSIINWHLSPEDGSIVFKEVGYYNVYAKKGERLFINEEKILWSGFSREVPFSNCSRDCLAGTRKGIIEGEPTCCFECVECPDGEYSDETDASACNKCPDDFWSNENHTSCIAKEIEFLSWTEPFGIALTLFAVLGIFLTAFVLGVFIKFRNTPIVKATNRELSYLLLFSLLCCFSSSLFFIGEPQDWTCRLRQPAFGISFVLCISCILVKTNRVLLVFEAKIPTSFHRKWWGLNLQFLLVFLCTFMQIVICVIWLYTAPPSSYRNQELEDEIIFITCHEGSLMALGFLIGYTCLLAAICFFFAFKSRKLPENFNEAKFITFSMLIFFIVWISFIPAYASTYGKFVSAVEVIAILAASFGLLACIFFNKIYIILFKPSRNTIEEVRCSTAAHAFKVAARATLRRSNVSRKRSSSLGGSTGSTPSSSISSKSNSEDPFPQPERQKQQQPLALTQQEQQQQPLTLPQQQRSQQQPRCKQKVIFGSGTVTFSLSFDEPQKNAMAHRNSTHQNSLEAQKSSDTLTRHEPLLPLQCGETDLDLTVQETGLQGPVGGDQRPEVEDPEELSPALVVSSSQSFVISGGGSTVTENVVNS
Method in brief: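 Calcium flux in HEK293 cells stably expressing human CaSR, loaded with Calcium 4 dye for 1 h at 37° C, read on FLIPR. Compounds in 0.5% DMSO (10-point, 3-fold series) added first, then CaCl2 at 1 mM final. Buffer: 20 mM HEPES pH 7.4, HBSS, 0.4 mM CaCl2, Mg salts.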

[1] = Pharmacokinetic evaluation in rats; assay type: in vivo, rat; settings: for clearance / Cmax / bioavailability / half-life: rat, plasma, dose and route not given; for clearance: read-out: Clp (plasma clearance); for Cmax: read-out: Cmax (maximum observed plasma concentration); for bioavailability: read-out: F % (bioavailability); for half-life: read-out: t1/2 (plasma half-life) (converted)
[2] = HEK293 cells stably expressing human recombinant CaSR, 1 mM CaCl2 agonist, Tables 1-24, read-out: FLIPR ASSAY IC50
[3] = summary table, read-out: FLIPR CaSR (IC50)

Row | Structure (SMILES) | IC50 (human CaSR; [2]) [nM] | IC50 (human CaSR; [3]) [nM] | half-lives in rats [1] | tmax [1] | clearance [1] [mL/min/kg] | Cmax [1] [nM] | bioavailability [1] [%] | half-life [1] [h]
1 | C[C@@H](OC[C@H](O)CNC(C)(C)Cc1ccc2ccccc2c1)c1cccc2c1O[C@@H]1[C@@H](C(=O)O)[C@H]21 [Example 1-1] | 26 | 22 | short half-lives | less than an hour | 11 | 2400 | 24 | 1.7
2 | C[C@@H](OC[C@H](O)CNC(C)(C)Cc1ccc2ccccc2c1)c1cccc2c1[C@@H]1[C@H](O2)[C@H]1C(=O)O [Example 5-1] | 9 | 9 | short half-lives | less than an hour | 52.5 | 690 | 7 | 1.3
3 | CSc1ccc(CC(C)(C)NC[C@@H](O)CO[C@H](C)c2ccc(C)c3c2C2[C@H](O3)[C@H]2C(=O)O)cc1F (stereo partly drawn) [Example 8-24] | 21 | 20 | short half-lives | less than an hour | 40 | 160 | 7 | 1.8

Source: patent US20160311791A1, “NOVEL TRICYCLIC CALCIUM SENSING RECEPTOR ANTOGONISTS FOR THE TREATMENT OF OSTEOPOSOSIS” (MERCK SHARP & DOHME CORP., priority 2013, published 2016)
